The text below walks through data of patent publication US20250375450A1, “SMARCA2/4 INHIBITION AS A STRATEGY TO TREAT TUMORS THAT HARBOR ABERRANT BAF ASSEMBLIES” (BOARD OF REGENTS, THE UNIVERSITY OF TEXAS SYSTEM, priority 2022, published 2025).

“Also recorded” adds a separate entry of the source.

One assay concerns the target T1, SMARCA2 (Homo sapiens, UniProt P51531).
T1 construct: The SMARCA2-1 gene (amino acids 437-1493) encompassing all domains; made in house; host or cells: expiSF9 insect cells (baculovirus, pFASTBac1)
Put plainly: Secondary ATPase assay. Format: biochemical. The method, then:
Exemplary compounds were evaluated for their ability to inhibit human SMARCA2 in ATPase assays as detailed in Table 2 below. Dose response curves for compound nos.

The test system of the next assay is Ewing Sarcoma cell lines. The assay can be described thus: Growth of Ewing Sarcoma cell lines, live cell imaging (Incucyte S3) confluency. The class given is cell-based. Here is the method: (§1) Briefly, human SMARCA2 was purified, and a high-throughput screen (HTS) of 40,000 compounds was conducted. […] In brief, cells were grown in RPMI media supplemented with 10% Fetal bovine serum (FBS), 1× penicillin, and streptomycin antibiotics. Cells were placed in an incubator with 5% C02 and 50% humidity. When cells reached 90% confluency, cells were harvested, washed twice in 1×PBS, counted using trypan blue exclusion method. Then cells were seeded in 96-well plates (duplicates, n=2) at the density of 20,000 cells per well. Allowed them to attach to the bottom of the well for 1 to 2 hrs and treated with different concentration of AT-301 compound starting at highest concentration of 10 micromolar to serial dilution of the compound to the lowest concentration of 0.039 micromolar. Cells treated with only DMSO were also included as negative control. Cells were monitored for 72 hrs. by live cell imaging method (Incucyte S3) taking images every two hours. The confluency was determined and plotted against time (hours) by using Prism software.

Assay [1] deals with alveolar Rhabdomyosarcoma cell lines. The assay can be described thus: Growth of Rhabdomyosarcoma cell lines, live cell imaging confluency. Format: cell-based. Here is the method:
as §1
Assays were performed as detailed above for FIG. 4A-E.

T1 sequence (P51531 437-1493): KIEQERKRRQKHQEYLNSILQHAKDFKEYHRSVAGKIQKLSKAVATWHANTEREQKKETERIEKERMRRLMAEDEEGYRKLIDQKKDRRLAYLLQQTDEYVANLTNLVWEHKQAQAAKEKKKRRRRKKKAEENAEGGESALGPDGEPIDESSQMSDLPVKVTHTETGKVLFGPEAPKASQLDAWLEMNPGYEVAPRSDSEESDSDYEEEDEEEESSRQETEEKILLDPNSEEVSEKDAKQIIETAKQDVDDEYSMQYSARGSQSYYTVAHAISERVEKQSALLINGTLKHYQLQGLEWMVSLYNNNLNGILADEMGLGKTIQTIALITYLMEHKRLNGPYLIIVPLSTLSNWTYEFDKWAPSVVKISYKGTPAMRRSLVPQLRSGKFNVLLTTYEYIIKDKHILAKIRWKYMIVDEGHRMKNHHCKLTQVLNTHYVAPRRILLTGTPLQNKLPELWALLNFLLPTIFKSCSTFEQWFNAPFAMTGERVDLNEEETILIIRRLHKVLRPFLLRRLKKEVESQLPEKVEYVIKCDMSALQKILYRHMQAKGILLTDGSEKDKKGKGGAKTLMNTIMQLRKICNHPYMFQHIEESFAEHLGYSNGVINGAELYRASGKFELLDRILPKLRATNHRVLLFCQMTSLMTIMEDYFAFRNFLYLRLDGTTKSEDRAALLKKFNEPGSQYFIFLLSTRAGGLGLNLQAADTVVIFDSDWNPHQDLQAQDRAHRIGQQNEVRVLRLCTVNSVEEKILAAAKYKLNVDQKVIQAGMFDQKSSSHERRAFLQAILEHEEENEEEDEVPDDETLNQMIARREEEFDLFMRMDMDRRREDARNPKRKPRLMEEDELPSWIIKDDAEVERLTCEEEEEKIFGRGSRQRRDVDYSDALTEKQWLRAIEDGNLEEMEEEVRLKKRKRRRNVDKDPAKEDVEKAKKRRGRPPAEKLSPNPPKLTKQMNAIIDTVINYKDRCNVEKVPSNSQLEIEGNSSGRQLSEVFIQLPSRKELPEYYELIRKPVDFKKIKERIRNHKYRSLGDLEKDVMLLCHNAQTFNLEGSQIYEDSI

In the case of `Clc1ccc(CNc2nc(NC3CCCC3)nc3ccccc23)cc1Cl` [AT-301, N^2-cyclopentyl-N^4-(3,4-dichlorobenzyl)quinazoline-2,4-diamine], the IC50 – broadly, the midpoint of a concentration-inhibition curve – on SMARCA2 was approximately 5 µM; with Ewing Sarcoma cell lines (8 different Ewing Sarcoma cell lines, 72 hrs live cell imaging), approximately 5 µM. In addition, the “Growth of Ewing Sarcoma cell lines” value with Ewing Sarcoma cell lines (live cell imaging, confluency) was “attenuate the growth; also recorded: strongly attenuated the growth”. The “Growth of Rhabdomyosarcoma cell lines” value in assay [1] (2 other lines) was “moderately attenuated the growth”. Also, the “Growth of alveolar Rhabdomyosarcoma cell lines” value in assay [1] (4 alveolar Rhabdomyosarcoma cell lines) is listed as “attenuate the growth; also recorded: strongly attenuated the growth”.
